For one data set, the target named is T1, human TGR5 receptor (Homo sapiens, UniProt Q8TDU6).
T1 construct: in cells with endogenous levels of receptor; host or cells: NCI-H716 (human enteroendocrine)
T1 sequence (Q8TDU6 1-330): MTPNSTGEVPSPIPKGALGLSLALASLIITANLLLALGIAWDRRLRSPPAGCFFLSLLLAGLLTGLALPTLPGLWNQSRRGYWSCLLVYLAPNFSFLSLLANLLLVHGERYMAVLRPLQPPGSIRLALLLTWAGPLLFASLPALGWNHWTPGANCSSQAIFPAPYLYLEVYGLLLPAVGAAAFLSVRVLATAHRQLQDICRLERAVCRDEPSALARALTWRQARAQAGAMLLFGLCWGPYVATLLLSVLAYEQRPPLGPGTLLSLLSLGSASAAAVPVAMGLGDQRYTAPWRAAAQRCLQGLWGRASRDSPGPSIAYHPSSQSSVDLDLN
The data set is described as follows: cAMP production in NCI-H716 enteroendocrine cells (endogenous TGR5). In kind it is cell-based. As to the method:
(§1) HEK-293 cells were obtained from ATCC and a clonal HEK-293 line overexpressing mouse TGR5 was prepared. Both were maintained in Dulbecco’s modified Eagle’s medium (DMEM) containing 10% fetal bovine serum (FBS) and penicillin /streptomycin. Mouse STC-1 cells were obtained from ATCC under agreement with the Cold Spring Harbor Laboratories and maintained in DMEM containing 10% FBS and penicillin /streptomycin. NCI-H716 cells were obtained from ATCC and were maintained in RPMI-1640 with 10% FBS. NCI-H716 cells were cultured in 96 well plate coated with Matrigel (BD). After 72 hours, cAMP production stimulated with TGR5 agonists was measured using HTRF cAMP assay kit (CISBIO). The level of cAMP in suspensions of STC-1 cells stimulated with increasing concentrations of TGR5 agonists was also determined. […] The production of GLP-1 was determined using a GLP-1 Assay (7–36) amide kit (Mesoscale Discovery) following the manufacturer’s instructions. […]
(§2) Compound 18 is a novel small molecule agonist of TGR5 developed by Eli Lilly and Company (MW = 508.62, Fig 2A). […] In order to determine potency of compound 18 for the mouse and human TGR5 receptor in cells with endogenous levels of receptor, we measured compound 18-stimulated cAMP production and GLP-1 secretion in both mouse (STC-1) and human (NCI-H716) enteroendocrine cell lines, that we have shown to express TGR5 natively (Fig 1). […]

A further data set concerns NCI-H716 cells. The data set is described as follows: GLP-1 secretion in NCI-H716 enteroendocrine cells. The format is cell-based. The following applies: Homo sapiens. How it is done:
as §1, §2

Data set [1] is described as follows: CEREP mini panel (56 assays: enzymes, receptors, ion channels). Conditions: read-out: IC50s for 56 assays in a CEREP mini panel.
Data set [2] in a line: Plasma compound levels after oral dosing (LC-MS/MS). Conditions: C57BL/6, mouse.
Another data set concerns the target T2, mouse TGR5 (Mus musculus, UniProt Q80SS6).
T2 sequence (Q80SS6 1-329): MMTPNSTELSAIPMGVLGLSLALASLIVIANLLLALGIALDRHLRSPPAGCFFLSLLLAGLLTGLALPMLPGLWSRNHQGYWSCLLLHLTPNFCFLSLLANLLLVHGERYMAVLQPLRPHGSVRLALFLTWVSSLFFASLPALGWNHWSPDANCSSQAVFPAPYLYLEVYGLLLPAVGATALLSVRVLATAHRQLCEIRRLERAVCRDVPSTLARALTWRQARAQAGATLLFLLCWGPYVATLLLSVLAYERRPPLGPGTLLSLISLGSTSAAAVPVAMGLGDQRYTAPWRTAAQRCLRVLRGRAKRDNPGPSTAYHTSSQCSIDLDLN
The data set is described as follows: cAMP production in STC-1 enteroendocrine cells (endogenous TGR5). On the set-up: in cells with endogenous levels of receptor; host or cells: STC-1 (mouse enteroendocrine). The following applies: for EC50: STC-1 cells. The format is cell-based. How it is done:
Both were maintained in Dulbecco’s modified Eagle’s medium (DMEM) containing 10% fetal bovine serum (FBS) and penicillin /streptomycin. Mouse STC-1 cells were obtained from ATCC under agreement with the Cold Spring Harbor Laboratories and maintained in DMEM containing 10% FBS and penicillin /streptomycin. […] NCI-H716 cells were cultured in 96 well plate coated with Matrigel (BD). After 72 hours, cAMP production stimulated with TGR5 agonists was measured using HTRF cAMP assay kit (CISBIO). The level of cAMP in suspensions of STC-1 cells stimulated with increasing concentrations of TGR5 agonists was also determined. After 2 day-culturing, GLP-1 secretion in Matrigel-differentiated NCI-H716 or STC-1 cells was induced by increasing concentrations of TGR5 agonists. The production of GLP-1 was determined using a GLP-1 Assay (7–36) amide kit (Mesoscale Discovery) following the manufacturer’s instructions. For both cAMP and GLP-1, the maximal response for each compound was set to 100% in each cell line.
In general terms: Changes in cAMP serve as a functional read-out for many G protein-coupled receptors.

The record followed here is PMC4551797 (PLoS ONE, 2015).

By EC50 is commonly meant the midpoint of the concentration-response curve. The AUC(0-t) is the area under the concentration-time curve up to a stated or last time point. Low readings indicate low exposure, high ones high exposure. The Cmax is the highest concentration seen after dosing. The Tmax is the time from dosing to the highest level.

Where two headings read alike, the source gives them in different places.

In the case of `CC(=O)N1CCC(C(C)N(C(=O)COc2cccc3sc4nc(C)cn4c23)c2ccc(F)cc2)CC1` (stereo not drawn) [compound 18], the EC50 came to 3100 nM on human TGR5 receptor; 2660 nM in the data set with NCI-H716 cells; 580 nM on mouse TGR5 (read-out: EC50, cAMP production); 580 nM on mouse TGR5 (unit inferred, x-axis in nM, read-out: EC50 STC-1 (Fig 2C inset, cAMP)). For the same compound, in data set [1], the IC50 was > 10000 nM. In addition, the AUC(0-t) in data set [2] (3 mg/kg) worked out at 0.049 µM·h; in data set [2] (10 mg/kg), 0.507 µM·h; in data set [2] (30 mg/kg) it was 1.52 µM·h; in data set [2] (100 mg/kg), 14.3 µM·h. For the same compound, the Cmax in data set [2] (3 mg/kg) is 59 nM; in data set [2] (10 mg/kg) it was 348 nM; in data set [2] (30 mg/kg), 2510 nM; in data set [2] (100 mg/kg) it was 14800 nM. The Tmax in data set [2] (100 mg/kg) was 15 min. In addition, at mouse TGR5 (STC-1 versus NCI-H716 cells), the “potency on the mouse versus the human TGR5 receptor” value is “more than 5 fold”.
